Experimental data published in publication PMC8305873, “Design and heterologous expression of a novel dimeric LL37 variant in Pichia pastoris” (Microbial Cell Factories, 2021).
In brackets after ≈: the same amount, converted by molar mass. Where two headings read alike, the source gives them in different places. Where a SMILES comes first, the peptide text is derived from it.

Columns and labels:
E. coli UB 1005 = assay type: cell-based, Escherichia coli
Method: (§1) All experiments were conducted at least three different times.

human red blood cells = experiment: Hemolytic activity assay; assay type: cell-based; details: for MHC (minimum hemolysis concentration): concentration of peptide that causes 20% hemolysis, human red blood cells in 10 mM PBS pH 7.4, 37 °C 1 h, OD570
bacteria = details: when no antimicrobial activity is detected at 32 µM, 64 µM is used
Method: The minimum inhibitory concentration (MIC) is a vital indicator for evaluating the antimicrobial activity of AMPs. The determination method refers to the improved method of Dong et al.. The strains to be tested were inoculated in Mueller Hinton broth (MHB) medium and cultured at 200 rpm and 37 °C until the logarithmic growth phase, and then the number of colonies was adjusted to approximately 10^5 CFU/mL. The 95 µL of bovine serum albumin (BSA) diluent (0.01% acetic acid and 0.2% BSA) and 5 µL of peptide (1.28 mM) were added to the first row of the 96-well plate, and 50 µL of BSA diluent was added to the other columns. After mixing in the first row, 50 µL of the mixture was aspirated and added to the second column and so on to the 11th row. After being cultured at 37 °C for 18–24 h, the minimum peptide concentration required to inhibit bacterial growth was the MIC value. All experiments were conducted at least three different times.
The safety of peptides is usually assessed by hemolytic activity. The collected blood of type B from healthy donor was centrifuged at 1000×g for 5 min to collect red blood cells. The red blood cells were then washed and resuspended in 10 mM PBS (pH 7.4). Fifty microliters of diluted red blood cells and an equal volume of peptide solution (2–128 µM) were incubated in a 96-well plate at 37 °C for 1 h. The red blood cell suspension treated with 0.1% Triton X-100 was used as a positive control (100% hemolysis), and untreated blood cell suspension was used as a negative control. The 96-well plate was centrifuged at 1000×g for 5 min at 4 °C, and then the supernatant was transferred to a new 96-well plate. The absorbance at OD570 was measured with a microplate reader.

S. faecalis ATCC 29212 = assay type: cell-based, Streptococcus faecalis; details: ATCC 29212
Method: as §1

E. coli ATCC 25922 [1] = assay type: cell-based, Escherichia coli; details: ATCC 25922
Method: as §1

E. coli ATCC 078 = assay type: cell-based, Escherichia coli; details: ATCC 078
Method: as §1

P. aeruginosa ATCC 27853 = assay type: cell-based, Pseudomonas aeruginosa; details: ATCC 27853
Method: as §1

[2] = tested on: S. epidermidis ATCC 12228; assay type: cell-based, Staphylococcus epidermidis; details: ATCC 12228
Method: as §1

S. aureus ATCC 25923 = assay type: cell-based, Staphylococcus aureus; details: ATCC 25923
Method: as §1

S. aureus ATCC 29213 = assay type: cell-based, Staphylococcus aureus; details: ATCC 29213
Method: as §1

[3] = tested on: S. Typhimurium ATCC 14028; assay type: cell-based, Salmonella Typhimurium; details: ATCC 14028
Method: as §1

S. Typhimurium C 7731 = assay type: cell-based, Salmonella Typhimurium; details: C 7731
Method: as §1

E. coli ATCC 25922 [4] = assay type: cell-based, Escherichia coli; details: ATCC 25922; remark: listed apart in the source
E. coli ATCC 25922 [5] = assay type: cell-based, Escherichia coli; details: ATCC 25922; remark: listed apart in the source
Method: as §1
The salt ions were added to the BSA solution and configured into different final concentrations of salt ions (150 mM NaCl, 4.5 mM KCl, 6 µM NH4Cl, 8 µM ZnCl2, 1 mM MgCl2, 2 mM CaCl2, and 4 µM FeCl3) solutions. The method discribed as above was referred to determine the MIC value of rLG against E. coli ATCC 25922 in the presence of different concentrations of salt ions.

| SMILES | MIC (E. coli UB 1005; UB 1005) | MHC (minimum hemolysis concentration) (human red blood cells) | GM (geometric mean of the MIC value of the peptide against bacteria) (bacteria) | MIC (S. faecalis ATCC 29212) | MIC (E. coli ATCC 25922 [1]) | MIC (E. coli ATCC 078) | MIC (P. aeruginosa ATCC 27853) | MIC [2] | MIC (S. aureus ATCC 25923) | MIC (S. aureus ATCC 29213) | MIC [3] | MIC (S. Typhimurium C 7731) | further results |
| --- | --- | --- | --- | --- | --- | --- | --- | --- | --- | --- | --- | --- | --- |
| CC[C@H](C)[C@H](NC(=O)[C@H](CCCNC(=N)N)NC(=O)[C@H](CCC(N)=O)NC(=O)[C@@H](NC(=O)[C@@H](NC(=O)[C@H](CCCNC(=N)N)NC(=O)[C@H](CCCCN)NC(=O)[C@H](Cc1ccccc1)NC(=O)[C@H](CO)NC(=O)CNC(=O)CNC(=O)CNC(=O)CNC(=O)[C@H](CCCNC(=N)N)NC(=O)[C@H](CC(C)C)NC(=O)[C@H](Cc1ccccc1)NC(=O)[C@H](CCCNC(=N)N)NC(=O)[C@H](CCCCN)NC(=O)[C@@H](NC(=O)[C@H](CCCNC(=N)N)NC(=O)[C@H](CCC(N)=O)NC(=O)[C@@H](NC(=O)[C@@H](NC(=O)[C@H](CCCNC(=N)N)NC(=O)[C@H](CCCCN)NC(=O)[C@@H](N)Cc1ccccc1)[C@@H](C)CC)C(C)C)[C@@H](C)CC)[C@@H](C)CC)C(C)C)C(=O)N[C@@H](CCCCN)C(=O)N[C@@H](CCCNC(=N)N)C(=O)N[C@@H](Cc1ccccc1)C(=O)N[C@@H](CC(C)C)C(=O)N[C@@H](CCCNC(=N)N)C(=O)O [LG] (H-FKRIVQRIKRFLRGGGGSFKRIVQRIKRFLR-OH) | 1.22 ± 0.41 µM (≈ 4.66 µg/mL) | 64 µM | 2.00 µM |  |  |  |  |  |  |  |  |  | MIC (E. coli UB 1005; Table 3, recombinant vs synthetic LG, mean ± SD of three independent experiments): 1.33 ± 0.25 µM |
| CC[C@H](C)[C@H](NC(=O)[C@H](CCCNC(=N)N)NC(=O)[C@H](CCC(N)=O)NC(=O)[C@@H](NC(=O)[C@@H](NC(=O)[C@H](CCCNC(=N)N)NC(=O)[C@H](CCCCN)NC(=O)[C@H](Cc1ccccc1)NC(=O)[C@H](CCCNC(=N)N)NC(=O)[C@H](CC(C)C)NC(=O)[C@H](Cc1ccccc1)NC(=O)[C@H](CCCNC(=N)N)NC(=O)[C@H](CCCCN)NC(=O)[C@@H](NC(=O)[C@H](CCCNC(=N)N)NC(=O)[C@H](CCC(N)=O)NC(=O)[C@@H](NC(=O)[C@@H](NC(=O)[C@H](CCCNC(=N)N)NC(=O)[C@H](CCCCN)NC(=O)[C@@H](N)Cc1ccccc1)[C@@H](C)CC)C(C)C)[C@@H](C)CC)[C@@H](C)CC)C(C)C)C(=O)N[C@@H](CCCCN)C(=O)N[C@@H](CCCNC(=N)N)C(=O)N[C@@H](Cc1ccccc1)C(=O)N[C@@H](CC(C)C)C(=O)N[C@@H](CCCNC(=N)N)C(=O)O [(FR)2] (H-FKRIVQRIKRFLRFKRIVQRIKRFLR-OH) | 1.00 ± 0.00 µM (≈ 3.5 µg/mL) | 16 µM | 1.62 µM | 2.00 ± 0.00 µM (≈ 7 µg/mL) | 1.22 ± 0.41 µM (≈ 4.27 µg/mL) | 1.11 ± 0.31 µM (≈ 3.89 µg/mL) | 2.22 ± 0.63 µM (≈ 7.78 µg/mL) | 2.00 ± 0.00 µM (≈ 7 µg/mL) | 3.78 ± 0.63 µM (≈ 13.2 µg/mL) | 2.00 ± 0.00 µM (≈ 7 µg/mL) | 2.22 ± 0.63 µM (≈ 7.78 µg/mL) | 1.11 ± 0.31 µM (≈ 3.89 µg/mL) | hemolysis (blood cells destroyed) (human red blood cells; at the highest peptide concentration (128 μM), human red blood cells, 37 °C 1 h, 0.1% Triton X-100 = 100%): approximately 43% |
| CC[C@H](C)[C@H](NC(=O)[C@H](CCCNC(=N)N)NC(=O)[C@H](CCC(N)=O)NC(=O)[C@@H](NC(=O)[C@@H](NC(=O)[C@H](CCCNC(=N)N)NC(=O)[C@H](CCCCN)NC(=O)[C@@H](N)Cc1ccccc1)[C@@H](C)CC)C(C)C)C(=O)N[C@@H](CCCCN)C(=O)N[C@@H](CCCNC(=N)N)C(=O)N[C@@H](Cc1ccccc1)C(=O)N[C@@H](CC(C)C)C(=O)N[C@@H](CCCNC(=N)N)C(=O)O [FR] (H-FKRIVQRIKRFLR-OH) | 2.44 ± 0.83 µM (≈ 4.29 µg/mL) |  |  | 4.00 ± 0.00 µM (≈ 7.04 µg/mL) | 7.11 ± 1.66 µM (≈ 12.5 µg/mL) | 8.00 ± 0.00 µM (≈ 14.1 µg/mL) | 16.00 ± 0.00 µM (≈ 28.2 µg/mL) | 3.78 ± 0.63 µM (≈ 6.65 µg/mL) | 16.00 ± 0.00 µM (≈ 28.2 µg/mL) | 8.00 ± 0.00 µM (≈ 14.1 µg/mL) | 8.00 ± 0.00 µM (≈ 14.1 µg/mL) | 8.00 ± 0.00 µM (≈ 14.1 µg/mL) | MIC, Control (E. coli ATCC 25922 [4]): 8 µM (≈ 14.1 µg/mL); MIC under physiological salt concentration, CaCl2 (E. coli ATCC 25922 [5]): > 32 µM; MIC under physiological salt concentration, FeCl3 (E. coli ATCC 25922 [5]): 16 µM; MIC under physiological salt concentration, GM (E. coli ATCC 25922 [5]): 19.50 µM; MIC under physiological salt concentration, KCl (E. coli ATCC 25922 [5]): 8 µM; MIC under physiological salt concentration, MgCl2 (E. coli ATCC 25922 [5]): 32 µM; MIC under physiological salt concentration, NH4Cl (E. coli ATCC 25922 [5]): 8 µM; MIC under physiological salt concentration, NaCl (E. coli ATCC 25922 [5]): > 32 µM; MIC under physiological salt concentration, ZnCl2 (E. coli ATCC 25922 [5]): 8 µM |
| CC[C@H](C)[C@H](NC(=O)[C@H](CCCNC(=N)N)NC(=O)[C@H](CCC(N)=O)NC(=O)[C@@H](NC(=O)[C@@H](NC(=O)[C@H](CCCNC(=N)N)NC(=O)[C@H](CCCCN)NC(=O)[C@H](Cc1ccccc1)NC(=O)[C@H](C)NC(=O)[C@H](CCCCN)NC(=O)[C@H](C)NC(=O)[C@H](C)NC(=O)[C@H](C)NC(=O)[C@H](CCC(=O)O)NC(=O)[C@H](C)NC(=O)[C@H](CCCNC(=N)N)NC(=O)[C@H](CC(C)C)NC(=O)[C@H](Cc1ccccc1)NC(=O)[C@H](CCCNC(=N)N)NC(=O)[C@H](CCCCN)NC(=O)[C@@H](NC(=O)[C@H](CCCNC(=N)N)NC(=O)[C@H](CCC(N)=O)NC(=O)[C@@H](NC(=O)[C@@H](NC(=O)[C@H](CCCNC(=N)N)NC(=O)[C@H](CCCCN)NC(=O)[C@@H](N)Cc1ccccc1)[C@@H](C)CC)C(C)C)[C@@H](C)CC)[C@@H](C)CC)C(C)C)C(=O)N[C@@H](CCCCN)C(=O)N[C@@H](CCCNC(=N)N)C(=O)N[C@@H](Cc1ccccc1)C(=O)N[C@@H](CC(C)C)C(=O)N[C@@H](CCCNC(=N)N)C(=O)O [LA] (H-FKRIVQRIKRFLRAEAAAKAFKRIVQRIKRFLR-OH) | 1.11 ± 0.31 µM (≈ 4.57 µg/mL) | 32 µM | 8.00 µM | > 32 µM | 2.22 ± 0.63 µM (≈ 9.14 µg/mL) | 2.44 ± 0.83 µM (≈ 10 µg/mL) | 4.44 ± 1.25 µM (≈ 18.3 µg/mL) | > 32 µM | > 32 µM | > 32 µM | 4.44 ± 1.25 µM (≈ 18.3 µg/mL) | 1.11 ± 0.31 µM (≈ 4.57 µg/mL) |  |
| CC[C@H](C)[C@H](NC(=O)[C@H](CCCNC(=N)N)NC(=O)[C@H](CCC(N)=O)NC(=O)[C@@H](NC(=O)[C@@H](NC(=O)[C@H](CCCNC(=N)N)NC(=O)[C@H](CCCCN)NC(=O)[C@@H](N)Cc1ccccc1)[C@@H](C)CC)C(C)C)C(=O)N[C@@H](CCCCN)C(=O)N[C@@H](CC(=O)O)C(=O)N[C@@H](Cc1ccccc1)C(=O)N[C@@H](CC(C)C)C(=O)N[C@@H](CCCNC(=N)N)C(=O)O [FD] (H-FKRIVQRIKDFLR-OH) | 16.00 ± 0.00 µM (≈ 27.5 µg/mL) |  |  | > 32 µM | 32.00 ± 0.00 µM (≈ 55 µg/mL) | 16.00 ± 0.00 µM (≈ 27.5 µg/mL) | > 32 µM | > 32 µM | > 32 µM | > 32 µM | 32.00 ± 0.00 µM (≈ 55 µg/mL) | 32.00 ± 0.00 µM (≈ 55 µg/mL) |  |
